The results in this text go back to US8178677B2, “Hydroxyalkyl substituted imidazoquinolines” (3M Innovative Properties Company, priority 2005, dated 2012).

The subject of series [1] is tumor necrosis factor (α) (TNF-α) induction in human peripheral blood mononuclear cells (PBMC). Kind of series: Cytokine induction in human cells (PBMC): TNF-α secreted into culture media, ORIGEN M-Series immunoassay. It counts as cell-based. The settings on record: for Maximal Response (pg/mL) TNF: background-subtracted; for minimal effective concentration: Homo sapiens, PBMC, read-out: Minimum Effective Concentration (μM) TNF. From the text: (§1) Cytokine Induction in Human Cells
(§2) An in vitro human blood cell system is used to assess cytokine induction. Activity is based on the measurement of interferon (α) and tumor necrosis factor (α) (IFN-α and TNF-α, respectively) secreted into culture media as described by Testerman et. al. in “Cytokine Induction by the Immunomodulators Imiquimod and S-27609”, Journal of Leukocyte Biology, 58, 365-372 (September, 1995).
(§3) Blood Cell Preparation for Culture
(§4) Whole blood from healthy human donors is collected by venipuncture into vacutainer tubes or syringes containing EDTA. Peripheral blood mononuclear cells (PBMC) are separated from whole blood by density gradient centrifugation using HISTOPAQUE-1077 (Sigma, St. Louis, Mo.) or Ficoll-Paque Plus (Amersham Biosciences Piscataway, N.J.). Blood is diluted 1:1 with Dulbecco's Phosphate Buffered Saline (DPBS) or Hank's Balanced Salts Solution (HBSS). Alternately, whole blood is placed in Accuspin (Sigma) or LeucoSep (Greiner Bio-One, Inc., Longwood, Fla.) centrifuge frit tubes containing density gradient medium. The PBMC layer is collected and washed twice with DPBS or HBSS and re-suspended at 4×10^6 cells/mL in RPMI complete. The PBMC suspension is added to 96 well flat bottom sterile tissue culture plates containing an equal volume of RPMI complete media containing test compound.
(§5) The compounds are solubilized in dimethyl sulfoxide (DMSO). The DMSO concentration should not exceed a final concentration of 1% for addition to the culture wells. The compounds are generally tested at concentrations ranging from 30-0.014 μM. Controls include cell samples with media only, cell samples with DMSO only (no compound), and cell samples with reference compound.
(§6) The solution of test compound is added at 60 μM to the first well containing RPMI complete and serial 3 fold dilutions are made in the wells. The PBMC suspension is then added to the wells in an equal volume, bringing the test compound concentrations to the desired range (usually 30-0.014 μM). The final concentration of PBMC suspension is 2×10^6 cells/mL. The plates are covered with sterile plastic lids, mixed gently and then incubated for 18 to 24 hours at 37° C. in a 5% carbon dioxide atmosphere.
(§7) Following incubation the plates are centrifuged for 10 minutes at 1000 rpm (approximately 200×g) at 4° C. The cell-free culture supernatant is removed and transferred to sterile polypropylene tubes. Samples are maintained at −30 to −70° C. until analysis. The samples are analyzed for IFN-α by ELISA and for TNF-α by IGEN/BioVeris Assay.
(§8) Interferon (α) and Tumor Necrosis Factor (α) Analysis
The TNF-α concentration is determined by ORIGEN M-Series Immunoassay and read on an IGEN M-8 analyzer from BioVeris Corporation, formerly known as IGEN International, Gaithersburg, Md. The immunoassay uses a human TNF-α capture and detection antibody pair (Catalog Numbers AHC3419 and AHC3712) from Biosource International, Camarillo, Calif. Results are expressed in pg/mL.
(§9) In total, the data output of the assay consists of concentration values of TNF-α and IFN-α (y-axis) as a function of compound concentration (x-axis).
Analysis of the data has two steps. First, the greater of the mean DMSO (DMSO control wells) or the experimental background (usually 20 pg/mL for IFN-α and 40 pg/mL for TNF-α) is subtracted from each reading. If any negative values result from background subtraction, the reading is reported as “*”, and is noted as not reliably detectable. In subsequent calculations and statistics, “*”, is treated as a zero. Second, all background subtracted values are multiplied by a single adjustment ratio to decrease experiment to experiment variability. The adjustment ratio is the area of the reference compound in the new experiment divided by the expected area of the reference compound based on the past 61 experiments (unadjusted readings). […]

Series [2] has as its system interferon (α) (IFN-α) induction in human peripheral blood mononuclear cells (PBMC). Kind of series: Cytokine induction in human cells (PBMC): IFN-α secreted into culture media, ELISA. Type of series: cell-based. As to conditions: read-out: Minimum Effective Concentration (μM) IFN.
Source text: as §1, §2, §3, §4, §5, §6, §7, §8
IFN-α concentration is determined with a human multi-subtype calorimetric sandwich ELISA (Catalog Number 41105) from PBL Biomedical Laboratories, Piscataway, N.J. Results are expressed in pg/mL.
as §9
Analysis of the data has two steps. First, the greater of the mean DMSO (DMSO control wells) or the experimental background (usually 20 pg/mL for IFN-α and 40 pg/mL for TNF-α) is subtracted from each reading. If any negative values result from background subtraction, the reading is reported as “*”, and is noted as not reliably detectable. In subsequent calculations and statistics, “*”, is treated as a zero. Second, all background subtracted values are multiplied by a single adjustment ratio to decrease experiment to experiment variability. The adjustment ratio is the area of the reference compound in the new experiment divided by the expected area of the reference compound based on the past 61 experiments (unadjusted readings). […] The reference compound used is 2-[4-amino-2-ethoxymethyl-6,7,8,9-tetrahydro-α,α-dimethyl-1H-imidazo[4,5-c]quinolin-1-yl]ethanol hydrate (U.S. Pat. No. 5,352,784; Example 91) and the expected area is the sum of the median dose values from the past 61 experiments. […]
On the technique in general: An ELISA detects its analyte on a solid surface through an enzyme-linked reagent.

Setting [3] is: 18 to 24 hours incubation, tested 30-0.014 μM, lowest concentration inducing response over 40 pg/mL TNF-α, median of # experiments.
[4] abbreviates: lowest tested concentration inducing TNF-α over 40 pg/mL, median where more than one experiment.
Where [5] appears, read: maximal response in dose response curve, reference-adjusted, median where more than one experiment, * = below background of 40 pg/mL.
[6] abbreviates: 18 to 24 hours incubation, tested 30-0.014 μM, lowest concentration inducing response over 20 pg/mL IFN-α, median of # experiments.
The mark [7] stands for this setting: lowest tested concentration inducing IFN-α over 20 pg/mL, median where more than one experiment.

The structures appear in SMILES notation. Read-outs that look alike come from different tables or passages of the source.

`CC(C)(Cn1c(CCO)nc2c(N)nc3ccccc3c21)NS(C)(=O)=O` [Example 6, N-{2-[4-Amino-2-(2-hydroxyethyl)-1H-imidazo[4,5-c]quinolin-1-yl]-1,1-dimethylethyl}methanesulfonamide] yielded a melting point of 209 to 212 °C. In series [1] (18 to 24 hours incubation, reference-adjusted maximal response of dose response curve, median of # experiments), the “Maximal Response (pg/mL) TNF” value is given as “* (TNF below experimental background of 40 pg/mL.)”. Besides, the minimal effective concentration in series [1] (setting [3]) is greater than 30 µM. Also, the minimal effective concentration in series [1] (setting [4]) is 30 µM. For the same compound, the “Maximal Response (pg/mL) TNF” value in series [1] (setting [5]) is listed as “* (TNF below experimental background of 40 pg/mL.)”. In addition, in series [2] (setting [6]), the minimal effective concentration is 1.11 µM. The minimal effective concentration in series [2] (setting [7]) stood at 1.11 µM.

For `CC(C)(Cn1c(CO)nc2c(N)nc3ccccc3c21)NS(C)(=O)=O` [Example 7, N-[2-(4-Amino-2-hydroxymethyl-1H-imidazo[4,5-c]quinolin-1-yl)-1,1-dimethylethyl]methanesulfonamide], the melting point lay in the range of 262 to 265 °C. Also, the minimal effective concentration in series [1] (setting [3]) was 30 µM. Further, the minimal effective concentration in series [1] (setting [4]) stood at 30 µM. The minimal effective concentration in series [2] (setting [6]) worked out at 3.33 µM. Moreover, in series [2] (setting [7]), the minimal effective concentration is recorded as 3.33 µM.

`CC(C)C(=O)NCCCn1c(CCO)nc2c(N)nc3ccccc3c21` [Example 141, N-{3-[4-Amino-2-(2-hydroxyethyl)-1H-imidazo[4,5-c]quinolin-1-yl]propyl}-2-methylpropionamide] showed a melting point of 196 to 198 °C. Moreover, the minimal effective concentration in series [1] (setting [4]) was 30 µM. Further, in series [2] (setting [7]), the minimal effective concentration stood at 0.04 µM.

Regarding `CC(C)NC(=O)NC(C)(C)Cn1c(CO)nc2c(N)nc3ccccc3c21` [Example 142, 1-[2-(4-Amino-2-hydroxymethyl-1H-imidazo[4,5-c]quinolin-1-yl)-1,1-dimethylethyl]-3-(1-methylethyl)urea], the melting point lay in the range of 196 to 199 °C. Moreover, in series [1] (setting [4]), the minimal effective concentration was greater than 30 µM. In addition, the “Maximal Response (pg/mL) TNF” value in series [1] (setting [5]) was “* (TNF below experimental background of 40 pg/mL.)”. The minimal effective concentration in series [2] (setting [7]) was 1.11 µM.

`CC(C)(Cn1c(CO)nc2c(N)nc3ccccc3c21)CS(C)(=O)=O` [Example 143, {4-Amino-1-[2,2-dimethyl-3-(methylsulfonyl)propyl]-1H-imidazo[4,5-c]quinolin-2-yl}methanol] registered a melting point of 230 to 232 °C. Besides, in series [1] (setting [4]), the minimal effective concentration amounted to 30 µM. For the same compound, in series [2] (setting [7]), the minimal effective concentration came to 1.11 µM.

With `CC(C)NC(=O)NCCn1c(CO)nc2c(N)nc3ccccc3c21` [Example 144, N-{2-[4-amino-2-(hydroxymethyl)-1H-imidazo[4,5-c]quinolin-1-yl]ethyl}-N′-isopropylurea], the melting point is greater than 240 °C. Moreover, the minimal effective concentration in series [1] (setting [4]) came out at 3.33 µM. In addition, in series [2] (setting [7]), the minimal effective concentration is 0.37 µM.

The compound `CS(=O)(=O)NCCCCn1c(CO)nc2c(N)nc3ccccc3c21` [Example 147, N-[4-(4-amino-2-hydroxymethyl-1H-imidazo[4,5-c]quinolin-1-yl)butyl]methanesulfonamide] returned a melting point of 216 to 219 °C. Besides, the minimal effective concentration in series [1] (setting [4]) was greater than 30 µM. Besides, the “Maximal Response (pg/mL) TNF” value in series [1] (setting [5]) is reported as “* (TNF below experimental background of 40 pg/mL.)”. For the same compound, the minimal effective concentration in series [2] (setting [7]) came to 0.37 µM.

As usually defined, the melting point is the temperature of the solid-liquid transition.
